Data as given in patent publication US20220235065A1 (Epizyme, Inc., priority 2016, published 2022).

What was measured:
[1] = tested on: H3K9me2 in MDA-MB-231 cells; assay: MDA-MB-231 H3K9me2 in-cell western assay; format: cell-based; conditions: Homo sapiens, read-out: EHMT2 ICW (IC50 μM)
Outline: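 MDA-MB-231 cells (3,000/well) exposed to compound for two consecutive 48 h periods at 37 °C, then fixed and stained for H3K9me2, with DRAQ5 as DNA stain and infrared read at 700/800 nm. Percent inhibition was set between DMSO and UNC0638 control wells. IC50 came from triplicate dose–response fits with a four-parameter model, top 100%, bottom 0%.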

EHMT1 = target: T1, EHMT1 (Homo sapiens, UniProt Q9H9B1); assay: EHMT1 PEP (EHMT1 peptide enzyme assay); format: biochemical; conditions: peptide substrate enzyme assay
T1 sequence (Q9H9B1 1-1298): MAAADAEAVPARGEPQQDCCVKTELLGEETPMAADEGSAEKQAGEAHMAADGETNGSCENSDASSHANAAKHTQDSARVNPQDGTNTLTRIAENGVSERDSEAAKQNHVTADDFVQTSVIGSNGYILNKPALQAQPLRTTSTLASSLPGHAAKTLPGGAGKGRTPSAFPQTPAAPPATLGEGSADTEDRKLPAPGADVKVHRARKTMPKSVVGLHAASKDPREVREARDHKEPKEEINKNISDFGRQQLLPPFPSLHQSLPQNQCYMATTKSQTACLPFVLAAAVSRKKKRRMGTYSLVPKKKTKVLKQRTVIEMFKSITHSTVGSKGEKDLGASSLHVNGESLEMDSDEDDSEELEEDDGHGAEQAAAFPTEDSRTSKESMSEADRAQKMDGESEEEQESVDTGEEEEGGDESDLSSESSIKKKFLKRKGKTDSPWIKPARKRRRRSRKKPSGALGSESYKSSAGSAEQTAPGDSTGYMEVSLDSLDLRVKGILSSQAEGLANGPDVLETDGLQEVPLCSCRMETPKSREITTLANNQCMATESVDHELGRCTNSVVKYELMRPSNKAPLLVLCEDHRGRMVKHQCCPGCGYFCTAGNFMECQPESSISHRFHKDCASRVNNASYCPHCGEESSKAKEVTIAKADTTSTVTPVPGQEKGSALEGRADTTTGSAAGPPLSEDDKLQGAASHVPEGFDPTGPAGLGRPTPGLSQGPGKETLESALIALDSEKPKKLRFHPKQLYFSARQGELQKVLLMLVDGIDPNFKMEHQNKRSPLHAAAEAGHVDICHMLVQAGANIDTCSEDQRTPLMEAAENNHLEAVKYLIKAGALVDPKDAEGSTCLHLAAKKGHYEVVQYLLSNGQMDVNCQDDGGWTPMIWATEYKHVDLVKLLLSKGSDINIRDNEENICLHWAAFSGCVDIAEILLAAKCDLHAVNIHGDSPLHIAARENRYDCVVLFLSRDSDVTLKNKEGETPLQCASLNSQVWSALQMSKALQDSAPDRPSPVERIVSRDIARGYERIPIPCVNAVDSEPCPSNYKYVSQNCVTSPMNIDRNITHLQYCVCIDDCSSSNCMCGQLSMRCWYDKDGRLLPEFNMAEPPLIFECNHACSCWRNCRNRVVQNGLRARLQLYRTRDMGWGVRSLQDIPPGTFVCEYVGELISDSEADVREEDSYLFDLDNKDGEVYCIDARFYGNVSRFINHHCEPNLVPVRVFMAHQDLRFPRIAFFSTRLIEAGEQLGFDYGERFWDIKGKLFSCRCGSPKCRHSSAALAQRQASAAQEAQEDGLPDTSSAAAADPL

Compound	IC50 [1] [µM]	IC50 (EHMT1) [µM]
CNc1cc(C)nc(Nc2ccc(Cl)c(C(=O)Nc3ncccn3)c2)n1 [Compound 258]	1 to 10	0.1 to 1
CNc1cc(C)nc(Nc2ccc(Cl)c(C(=O)Nc3ccncn3)c2)n1 [Compound 259]	> 10	1 to 10
CNc1cc(C)nc(Nc2ccc(Cl)c(-c3cc4c(cn3)CC(=O)N4)c2)n1 [Compound 260]	> 10	0.1 to 1
CNCc1cnn(-c2cc(Nc3nc(C)cc(NC)n3)ccc2Cl)c1 [Compound 262, N2-(4-chloro-3-(4-((methylamino)methyl)-1H-pyrazol-1-yl)phenyl)-N4,6-dimethylpyrimidine-2,4-diamine]	< 0.1	< 0.1
CCc1ccc(Nc2nc(C)cc(NC)n2)cc1-c1cc2ccncc2[nH]1 [Compound 269]	0.1 to 1	< 0.1
CNc1cc(C)nc(Nc2ccc(C)c(-c3[nH]c4cnccc4c3C#N)c2)n1 [Compound 271]	> 10	1 to 10
CNc1cc(C)nc(Nc2ccc(C)c(-c3cc4ccccc4[nH]3)c2)n1 [Compound 274]	> 10	1 to 10
CCNc1c[nH]c(=O)c(-c2cc(Nc3nc(C)cc(NC)n3)ccc2C)c1 [Compound 276]	1 to 10	1 to 10
CNc1nc2cc(-c3cc4ccncc4[nH]3)c(C)cc2n1C [Compound 278]	0.1 to 1	< 0.1
CNc1cc(C)nc(Nc2ccc(C)c(-c3nc4ccncc4[nH]3)c2)n1 [Compound 279]	1 to 10	< 0.1
CNc1cc(C)nc(Nc2ccc(C)c(C(=O)Nc3cscn3)c2)n1 [Compound 280]	> 10	1 to 10
CNc1cc(C)nc(Nc2ccc(C)c(-n3cc4cnccc4n3)c2)n1 [Compound 282]	< 0.1	< 0.1
CNCc1cnn(-c2cc(Nc3nc(C)cc(NC)n3)ccc2OC)c1 [Compound 285]	< 0.1	< 0.1
CNCc1cnn(-c2cc(Nc3nc(C)cc(NC)n3)ccc2C)c1 [Compound 286, N4,6-dimethyl-N2-(4-methyl-3-(4-((methylamino)methyl)-1H-pyrazol-1-yl)phenyl)pyrimidine-2,4-diamine]	< 0.1	< 0.1
CNc1cc(C)nc(Nc2ccc(C)c(C(=O)Nc3cnccn3)c2)n1 [Compound 287]	1 to 10	0.1 to 1
CNc1cc(C)nc(Nc2ccc(OC)c(-c3[nH]c4cnccc4c3C#N)c2)n1 [Compound 291]	1 to 10	1 to 10
CNc1cc(C)nc(Nc2ccc(OC)c(-c3cc4[nH]ccc4c(C#N)n3)c2)n1 [Compound 292]	0.1 to 1	< 0.1
CNc1cc(C)nc(Nc2ccc(OC)c(-c3cc4[nH]ccc4c(CNC(C)=O)n3)c2)n1 [Compound 293]	1 to 10	< 0.1
CNC1=Nc2cc(-c3cnc4cc[nH]c4c3)c(OC)cc2C12CCC2 [Compound 294]	1 to 10	< 0.1
CNc1nc2cc(-c3cnc4cc[nH]c4c3)c(OC)cc2n1C [Compound 295]	1 to 10	0.1 to 1
CNc1cc(C)nc(Nc2ccc(OC)c(-c3cc4[nH]ccc4c(CN)n3)c2)n1 [Compound 296]	1 to 10	< 0.1
CNc1cc(C)nc(Nc2ccc(C)c(C(=O)Nc3cn(C)nn3)c2)n1 [Compound 299]	> 10	1 to 10
CNC1=Nc2cc(-c3cc4[nH]ccc4nc3C)c(OC)cc2C12CCC2 [Compound 300]	0.1 to 1	< 0.1
CNc1cc(C)nc(Nc2ccc(C)c(C(=O)Nc3cn(C)cn3)c2)n1 [Compound 302]	> 10	> 10
CNc1nc2cc(-c3[nH]c4cnccc4c3C)c(OC)cc2n1C [Compound 304]	> 10	0.1 to 1
COc1cc(NC2CCNC2)ccc1-c1[nH]c2cnccc2c1C (centres unmarked) [Compound 305]	> 10	1 to 10
CNc1cc(C)nc(Nc2ccc(OC)c(-c3nccc(NC)n3)c2)n1 [Compound 306]	> 10	1 to 10
CNCc1cnn(-c2c(F)ccc(Nc3nc(C)cc(NC)n3)c2F)c1 [Compound 307]	0.1 to 1	< 0.1
CNC1=Nc2cc(-c3cc4[nH]ccc4c(C(N)=O)n3)c(OC)cc2C12CCC2 [Compound 308]	> 10	0.1 to 1
COc1cc2c(cc1-c1cc3[nH]ccc3cn1)N=C(NCC(N)=O)C21CCC1 [Compound 309]	> 10	0.1 to 1

Other lines, results leading:

IC50 [1] [µM]	IC50 (EHMT1) [µM]	Compound
> 10	1 to 10	COc1cc(NC2CCNCC2)ccc1-c1[nH]c2cnccc2c1C [Compound 310]
> 10	> 10	CNc1cc(C)nc(Nc2cnc(C)c(-c3cc4ccncc4[nH]3)c2)n1 [Compound 311]
1 to 10	0.1 to 1	CNCc1ccnc(-c2cc(Nc3nc(C)cc(NC)n3)ccc2OC)c1 [Compound 313]
0.1 to 1	< 0.1	CNC1=Nc2cc(-n3cc(CN4CCC4)cn3)c(OC)cc2C12CCC2 [Compound 314]
1 to 10	0.1 to 1	CNc1cc(C)nc(Nc2ccc(F)c(-n3cc(CN4CCC4)cn3)c2F)n1 [Compound 315]
0.1 to 1	< 0.1	CNc1cc(C)nc(Nc2ccc(OC)c(-c3[nH]c4cnccc4c3CNC(C)=O)c2)n1 [Compound 316]
< 0.1	< 0.1	CNCc1cnn(-c2c(OC)ccc(Nc3nc(C)cc(NC)n3)c2F)c1 [Compound 317, N2-(2-fluoro-4-methoxy-3-(4-((methylamino)methyl)-1H-pyrazol-1-yl)phenyl)-N4,6-dimethylpyrimidine-2,4-diamine]
0.1 to 1	0.1 to 1	CNCc1cnn(-c2c(F)ccc(Nc3nc(C)cc(NC)n3)c2OC)c1 [Compound 318]
< 0.1	< 0.1	CNCc1cnn(-c2cc(Nc3nc(C)cc(NC)n3)ccc2Br)c1 [Compound 319]
0.1 to 1	< 0.1	CCc1ccc(Nc2nc(C)cc(NC)n2)cc1-n1cc(CNC)cn1 [Compound 320]
< 0.1	< 0.1	CNc1cc(C)nc(Nc2ccc(OC)c(-n3cc(C4CCCN4)cn3)c2)n1 (centres unmarked) [Compound 321]
0.1 to 1	< 0.1	CNC1=Nc2cc(-n3cc(C4CCCN4)cn3)c(OC)cc2C12CCC2 (centres unmarked) [Compound 322]
0.1 to 1	< 0.1	CNCc1cn(-c2cc(Nc3nc(C)cc(NC)n3)ccc2OC)nc1F [Compound 323]
1 to 10	0.1 to 1	CNCc1cc(-c2cc(Nc3nc(C)cc(NC)n3)ccc2OC)on1 [Compound 324]
0.1 to 1	< 0.1	CNCc1cnn(-c2cc(Nc3nc(C)cc(NC)n3)ccc2C(F)(F)F)c1 [Compound 325]
< 0.1	< 0.1	CNC1=Nc2cc(-n3cc(C4CCCN4)cn3)c(Cl)cc2C12CCC2 (centres unmarked) [Compound 326]
< 0.1	< 0.1	CNCc1cnn(-c2c(Cl)ccc(Nc3nc(C)cc(NC)n3)c2Cl)c1 [Compound 327]
< 0.1	< 0.1	CNCc1cnn(-c2c(Cl)ccc(Nc3nc(C)cc(NC)n3)c2F)c1 [Compound 328]
< 0.1	< 0.1	CNCc1cnn(-c2c(F)ccc(Nc3nc(C)cc(NC)n3)c2Cl)c1 [Compound 329]
< 0.1	< 0.1	CNc1cc(C)nc(Nc2ccc(Cl)c(-n3cc(C4CCCN4)cn3)c2)n1 (centres unmarked) [Compound 330]
0.1 to 1	< 0.1	CNCc1cc(-c2cc(Nc3nc(C)cc(NC)n3)ccc2OC)no1 [Compound 331]
< 0.1	< 0.1	CNc1cc(C)nc(Nc2ccc(OC)c(-c3cc4[nH]cc(C)c4cn3)c2)n1 [Compound 386]
